Entries after “also recorded” stand apart in the source; their conditions may differ. Where two headings read alike, the source gives them in different places.
Legend:
[1] = tested on: T. cruzi Tulahuen CL2 (benznidazole-sensitive); assay: Antitrypanosomal activity (Chagas), β-galactosidase readout on MRC-5 cells; type: cell-based, Trypanosoma cruzi; conditions: for IC50: Trypanosoma cruzi, MRC5, 168 h, read-out: T. cruzi IC50
Procedure: (§1) The integrated panel of microbial screens and standard screening methodologies were adopted as previously described. All assays were performed in triplicate, at the Laboratory of Microbiology, Parasitology and Hygiene at the University of Antwerp, Belgium. […] The selectivity antiprotozoal potential was assessed by simultaneous evaluation of cytotoxicity on a fibroblast (MRC-5) cell line.
(§2) About 1.5 × 10^4 trypomastigotes/well were added to each well and parasite growth was assessed after 72 h at 37 °C by adding resazurin [30]. […] The color reaction was read at 540 nm after 4 h and absorbance values were expressed as a percentage of the blank controls.

[2] = tested on: Chloroquine-resistant P. falciparum 2/K 1-strain (erythrocytic schizonts); assay: Antiplasmodial activity (Malstat method); type: cell-based, Plasmodium falciparum; conditions: for IC50: Plasmodium falciparum, 72 h, read-out: P. falciparum IC50
Procedure: as §1
Chloroquine-resistant P. falciparum 2/K 1-strain was cultured in human erythrocytes O^+ at 37 °C under a low oxygen atmosphere (3% O2, 4% CO2, and 93% N2) in RPMI-1640, supplemented with 10% human serum. Infected human red blood cells (200 μL, 1% parasitaemia, 2% haematocrit) were added to each well and incubated for 72 h. After incubation, test plates were frozen at −20 °C. Parasite multiplication was measured by the Malstat method.

[3] = tested on: L.infantum MHOM/MA(BE)/67 amastigotes; assay: Antileishmanial activity, intracellular amastigotes in primary peritoneal mouse macrophages; type: cell-based, Leishmania infantum; conditions: for IC50: Leishmania infantum, Macrophage, 120 h, read-out: L. infantum IC50
Procedure: as §1
L.infantum MHOM/MA(BE)/67 amastigotes were collected from the spleen of an infected donor hamster and used to infect primary peritoneal mouse macrophages. To determine in vitro antileishmanial activity, 3 × 10^4 macrophages were seeded in each well of a 96-well plate. After 2 days outgrowth, 5 × 10^5 amastigotes/well were added and incubated for 2 h at 37 °C. Pre-diluted plant extracts were subsequently added and the plates were further incubated for 5 days at 37 °C and 5% CO2. Parasite burdens (mean number of amastigotes/macrophage) were microscopically assessed after Giemsa staining, and expressed as a percentage of the blank controls without plant extract.

[4] = tested on: Trypanosoma brucei Squib-427 strain (suramin-sensitive) trypomastigotes; assay: Antitrypanosomal activity, resazurin readout; type: cell-based; conditions: for IC50: Trypanosoma brucei, 72 h, read-out: T. brucei IC50; for T. brucei SI (selectivity index): versus MRC-5 cytotoxicity
Procedure: as §1, §2

[5] = Cytotoxicity assay (resazurin); type: cell-based; conditions: human, MRC-5 cells
Procedure: as §1
For the assay, 10^4 MRC-5 cells/well were seeded onto the test plates containing the pre-diluted sample and incubated at 37 °C and 5% CO2 for 72 h. Cell viability was assessed fluorimetrically after 4 h of addition of resazurin. Fluorescence was measured (excitation 550 nm, emission 590 nm) and the results were expressed as % reduction in cell viability compared to control.

[6] = tested on: all protozoa species (P. falciparum, L. infantum, T. cruzi, T. brucei); assay: Antiprotozoal activity, statement pooled over all protozoa species tested; type: cell-based; conditions: for IC50: pooled over P. falciparum, L. infantum, T. cruzi, T. brucei, read-out: IC50 against all protozoa species
Procedure: as §1

[7] = Tulahuen CL2 on MRC-5 cells, 7 days
[8] = chloroquine-resistant 2/K 1-strain
[9] = intracellular amastigotes in mouse macrophages, 5 days
[10] = MRC-5 SV2 cells (fibroblast cell line)

Compound | IC50 [1, 7] | IC50 [2, 8] | IC50 [3, 9] | IC50 ([4]; Squib-427 trypomastigotes) | IC50 at 72 h [5, 10] | IC50 [6] | other results
O=C(Cn1ccnc1[N+](=O)[O-])NCc1ccccc1 [Benznidazole, reference compound] | 2.5 ± 0.6 µM | – | – | – | – | – | –
CCN(CC)CCCC(C)Nc1ccnc2cc(Cl)ccc12 (stereo not shown) [Chloroquine, reference compound] | – | – | – | – | – | – | IC50 [2]: 0.04 ± 0.01 µM
CC(C)c1ccc2c(c1)CC[C@H]1C(C)(C)CCC[C@]21C [Compound (1), dehydroabietane] | > 237 µM | 124 ± 4.7 µM | > 237 µM | > 237 µM | > 237 µM | > 100 µM | L. infantum SI (selectivity index) ([3]; versus MRC-5 cytotoxicity): > 1; T. cruzi SI (selectivity index) ([1]; versus MRC-5 cytotoxicity): >1; T. brucei SI (selectivity index) [4]: >1; antiprotozoal activity (in words) ([6]; overall verdict over all protozoa tested): no activity against all protozoal strains; also recorded: no antiprotozoal potential
CC(C)C1=CC2=C(O)C(O)=C3C(C)(C)CCC[C@]3(C)C2=C(O)C1=O [Compound (2), 5,6-didehydro-7-hydroxy-taxodone] | – | – | – | 1.9 ± 0.4 µM | 96.2 ± 5.8 µM | – | IC50 [2]: 9.2 ± 0.6 µM; IC50 [3]: 25.7 ± 1.5 µM; IC50 ([1]; TULAHUEN): 25.7 ± 1.5 µM
CC(C)C1=CC2=CC(=O)[C@H]3C(C)(C)CCC[C@]3(C)C2=C(O)C1=O [Compound (3), taxodione] | 25.7 ± 2.3 µM | 8.5 ± 0.7 µM | 25.7 ± 2.3 µM | 9.8 ± 0.7 µM | 22.6 ± 1.3 µM | 6 to 31.6 µM | P. falciparum SI (selectivity index) ([2]; versus MRC-5 cytotoxicity): 2.6; T. brucei SI (selectivity index) [4]: 2.3
CC(C)c1cc2c(c(O)c1O)C13CCCC(C)(C)C1CC2OC3 (stereo not shown) [Compound (4), 20-deoxocarnosol] | 25.6 ± 1.2 µM | 11.1 ± 0.6 µM | 25.6 ± 1.2 µM | 6 ± 0.8 µM | – | 6 to 31.6 µM | IC50 at 72 h [5]: 6 ± 0.3 µM
CC(C)c1cc2c(c(O)c1O)C13CCCC(C)(C)C1C(O)C2OC3 (stereo not drawn) [Compound (5), 6α,11,12,-trihydroxy-7β,20-epoxy-8,11,13-abietatriene] | 24.4 ± 3.2 µM | 31.6 ± 1.9 µM | 24.4 ± 3.2 µM | 15.9 ± 1.4 µM | 5.7 ± 0.9 µM | 6 to 31.6 µM | –
Nc1nc(N)nc(Nc2ccc([As]3SCC(CO)S3)cc2)n1 (stereo not shown) [Melarsoprol, reference compound] | – | – | – | – | – | – | IC50 [4]: 0.005 ± 0.001 µM
CCCCCCCCCCCCCCCCOP(=O)([O-])OCC[N+](C)(C)C [Miltefosine, reference compound] | – | – | 2.4 ± 0.8 µM | – | – | – | –
CC/C(=C(\c1ccccc1)c1ccc(OCCN(C)C)cc1)c1ccccc1 [Tamoxifen, reference compound] | – | – | – | – | 10.5 ± 2.5 µM | – | –
